According to ChEMBL document CHEMBL1201862, “PubChem BioAssay data set” (2004):
One block for each compound: values may come before it. Activity calls are given as the source filed them.

Tests used:
Hexokinase-1 = Hexokinase-1 (Homo sapiens, UniProt P19367); test: SAR analysis of small molecule inhibitors of hexokinase domain containing I (HKDC1) in the hexokinase 1 selectivity assay. [Related pubchem assays (depositor defined):AID493160, AID493190]; assay type: functional
Hexokinase HKDC1 = target: T1, Hexokinase HKDC1 (Homo sapiens, UniProt Q2TB90); test: SAR analysis of small molecule inhibitors of hexokinase domain containing I (HKDC1). [Related pubchem assays (depositor defined):AID493160, AID493190]; assay type: functional
T1 sequence (Q2TB90 whole entry): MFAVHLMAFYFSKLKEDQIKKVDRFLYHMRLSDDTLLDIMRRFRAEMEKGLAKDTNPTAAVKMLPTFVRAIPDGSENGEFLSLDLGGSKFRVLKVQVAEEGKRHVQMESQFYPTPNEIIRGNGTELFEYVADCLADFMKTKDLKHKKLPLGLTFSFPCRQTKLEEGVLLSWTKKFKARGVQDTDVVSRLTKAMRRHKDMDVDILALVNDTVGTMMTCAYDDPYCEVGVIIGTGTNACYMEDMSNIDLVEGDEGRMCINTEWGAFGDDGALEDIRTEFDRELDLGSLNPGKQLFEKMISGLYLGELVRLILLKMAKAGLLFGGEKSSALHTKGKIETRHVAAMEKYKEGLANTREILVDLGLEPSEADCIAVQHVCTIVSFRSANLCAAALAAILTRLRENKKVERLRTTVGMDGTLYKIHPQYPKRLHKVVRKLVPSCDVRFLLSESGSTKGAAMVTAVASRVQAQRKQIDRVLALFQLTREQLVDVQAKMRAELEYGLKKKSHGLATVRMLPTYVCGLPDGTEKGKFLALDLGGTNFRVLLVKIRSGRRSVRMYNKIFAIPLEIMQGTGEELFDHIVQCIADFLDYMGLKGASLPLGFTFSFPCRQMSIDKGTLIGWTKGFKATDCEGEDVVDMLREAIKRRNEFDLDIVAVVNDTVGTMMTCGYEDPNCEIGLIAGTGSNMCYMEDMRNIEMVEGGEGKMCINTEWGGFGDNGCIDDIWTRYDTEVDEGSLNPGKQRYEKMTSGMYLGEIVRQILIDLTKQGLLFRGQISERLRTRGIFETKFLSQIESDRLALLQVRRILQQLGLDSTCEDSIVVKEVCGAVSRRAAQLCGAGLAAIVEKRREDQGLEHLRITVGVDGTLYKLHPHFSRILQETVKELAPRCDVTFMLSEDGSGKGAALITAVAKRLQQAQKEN

[1] = target: Nuclear receptor subfamily 0 group B member 1 (Homo sapiens, UniProt P51843); test: Luminescence-based cell-based high throughput dose response assay for inhibitors of the orphan nuclear receptor subfamily 0, group B, member 1 (DAX1; NR0B1). [Related pubchem assays (depositor defined):AID504766, AID504790]; assay type: functional
HEK293 = test: cells; assay type: functional, cell-based; details: Homo sapiens
Large T antigen = Large T antigen (Simian virus 40, UniProt P03070); assay type: functional, Betapolyomavirus macacae;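 also: Confirmatory-stage PubChem screen for compounds that inhibit SV40 T antigen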
[2] = target: T2, Rac GTPase-activating protein 1 (Homo sapiens, UniProt Q9H0H5); test: blockers of MgcRacGAP-driven Rac1 GTP hydrolysis – biochemical, ADP Hunter fluorescence, primary and confirmatory, confirmation (AID 624330); assay type: functional
T2 sequence (Q9H0H5 whole entry): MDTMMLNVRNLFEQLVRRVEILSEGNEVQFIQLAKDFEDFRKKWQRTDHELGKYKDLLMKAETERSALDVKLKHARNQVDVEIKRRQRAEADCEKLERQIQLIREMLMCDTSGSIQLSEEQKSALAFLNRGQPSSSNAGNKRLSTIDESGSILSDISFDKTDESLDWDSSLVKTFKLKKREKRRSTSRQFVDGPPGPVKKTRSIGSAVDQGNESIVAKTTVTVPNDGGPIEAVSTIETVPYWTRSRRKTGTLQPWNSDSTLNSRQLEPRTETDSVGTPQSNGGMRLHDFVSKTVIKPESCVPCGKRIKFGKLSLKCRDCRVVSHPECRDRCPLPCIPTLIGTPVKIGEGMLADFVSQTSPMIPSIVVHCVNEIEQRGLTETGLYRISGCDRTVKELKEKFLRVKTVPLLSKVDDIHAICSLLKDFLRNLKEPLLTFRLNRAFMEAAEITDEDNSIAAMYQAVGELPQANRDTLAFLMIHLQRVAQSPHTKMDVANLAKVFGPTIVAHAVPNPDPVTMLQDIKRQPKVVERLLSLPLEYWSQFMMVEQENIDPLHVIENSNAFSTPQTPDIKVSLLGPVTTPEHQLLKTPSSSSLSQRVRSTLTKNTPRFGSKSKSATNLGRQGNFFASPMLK

[3] = target: Induced myeloid leukemia cell differentiation protein Mcl-1 (Homo sapiens, UniProt Q07820); assay type: functional
[4] = target: Beta-adrenergic receptor kinase 1 (Homo sapiens, UniProt P25098); test: aptamer displacement from bead-bound GRK2 – biochemical, cherry pick 1, bead flow cytometry, dose response (AID 504500)
[5] = target: T3, Heat shock 70 kDa protein 1A (Homo sapiens, UniProt P0DMV8); test: small-molecule inhibition of Hsp70 – biochemical, TR-FRET (AID 786)
[6] = viability loss in THP-1 monocytes – THP-1 cells, cytotoxicity control for Vif-APOBEC3G degradation inhibitor project, dose response (AID 1117359); assay type: functional; details: THP-1
[7] = target: T4, RNA-binding protein pos-1 (Caenorhabditis elegans, UniProt G5EF15); test: disruptors of C. elegans POS-1 RNA interaction – biochemical, fluorescence polarization, dose response (AID 1964);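 also: purified POS-1 fused to maltose binding protein made in E. coli; potency of compounds blocking POS-1 binding to fluorescent RNA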
T4 sequence (G5EF15 whole entry): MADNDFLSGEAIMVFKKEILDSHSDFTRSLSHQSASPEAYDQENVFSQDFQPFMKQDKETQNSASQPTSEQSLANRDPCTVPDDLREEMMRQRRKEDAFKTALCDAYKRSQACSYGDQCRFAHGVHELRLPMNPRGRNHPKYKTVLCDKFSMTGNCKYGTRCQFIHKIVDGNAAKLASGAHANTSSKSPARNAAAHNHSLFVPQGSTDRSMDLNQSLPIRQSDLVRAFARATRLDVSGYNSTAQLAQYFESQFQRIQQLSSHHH

[8] = target: DNA (cytosine-5)-methyltransferase 1 (Homo sapiens, UniProt P26358); test: inhibition of DNA methylation by DNMT1 – biochemical, fluorescent molecular beacon, confirmation (AID 602386); assay type: functional
[9] = target: T3, Heat shock 70 kDa protein 1A; test: small molecules displacing fluorescent ligand from Hsp70 – biochemical, fluorescence polarization, primary screen (AID 583)
Troponin, cardiac muscle = Troponin, cardiac muscle (Homo sapiens, UniProt P19429+P45379+P63316); test: compounds desensitizing RTF to calcium – biochemical, fluorescence, cardiac regulated thin filaments, triplicate IC50, dose response (AID 504742); assay type: protein-complex assay
[10] = target: T5, Zinc finger protein mex-5 (Caenorhabditis elegans, UniProt Q9XUB2); test: potency of MEX-5 RNA-binding blockers – biochemical, C. elegans, fluorescence polarization, dose response (AID 1960)
T5 sequence (Q9XUB2 whole entry): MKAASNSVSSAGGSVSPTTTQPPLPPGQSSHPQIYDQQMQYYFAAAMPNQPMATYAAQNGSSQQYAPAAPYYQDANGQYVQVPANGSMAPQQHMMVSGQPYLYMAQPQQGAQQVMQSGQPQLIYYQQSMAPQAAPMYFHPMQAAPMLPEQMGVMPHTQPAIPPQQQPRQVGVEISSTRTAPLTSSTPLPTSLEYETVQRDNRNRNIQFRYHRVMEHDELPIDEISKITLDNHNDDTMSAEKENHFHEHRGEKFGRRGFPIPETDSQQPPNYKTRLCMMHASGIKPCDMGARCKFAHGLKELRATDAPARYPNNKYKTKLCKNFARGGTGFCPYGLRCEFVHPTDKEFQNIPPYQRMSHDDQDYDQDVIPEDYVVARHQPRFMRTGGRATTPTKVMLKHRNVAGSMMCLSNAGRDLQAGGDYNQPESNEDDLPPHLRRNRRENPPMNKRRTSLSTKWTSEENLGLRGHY

[11] = target: T6, Histone-lysine N-methyltransferase NSD2 (Homo sapiens, UniProt O96028); assay type: biochemical
T6 sequence (O96028 whole entry): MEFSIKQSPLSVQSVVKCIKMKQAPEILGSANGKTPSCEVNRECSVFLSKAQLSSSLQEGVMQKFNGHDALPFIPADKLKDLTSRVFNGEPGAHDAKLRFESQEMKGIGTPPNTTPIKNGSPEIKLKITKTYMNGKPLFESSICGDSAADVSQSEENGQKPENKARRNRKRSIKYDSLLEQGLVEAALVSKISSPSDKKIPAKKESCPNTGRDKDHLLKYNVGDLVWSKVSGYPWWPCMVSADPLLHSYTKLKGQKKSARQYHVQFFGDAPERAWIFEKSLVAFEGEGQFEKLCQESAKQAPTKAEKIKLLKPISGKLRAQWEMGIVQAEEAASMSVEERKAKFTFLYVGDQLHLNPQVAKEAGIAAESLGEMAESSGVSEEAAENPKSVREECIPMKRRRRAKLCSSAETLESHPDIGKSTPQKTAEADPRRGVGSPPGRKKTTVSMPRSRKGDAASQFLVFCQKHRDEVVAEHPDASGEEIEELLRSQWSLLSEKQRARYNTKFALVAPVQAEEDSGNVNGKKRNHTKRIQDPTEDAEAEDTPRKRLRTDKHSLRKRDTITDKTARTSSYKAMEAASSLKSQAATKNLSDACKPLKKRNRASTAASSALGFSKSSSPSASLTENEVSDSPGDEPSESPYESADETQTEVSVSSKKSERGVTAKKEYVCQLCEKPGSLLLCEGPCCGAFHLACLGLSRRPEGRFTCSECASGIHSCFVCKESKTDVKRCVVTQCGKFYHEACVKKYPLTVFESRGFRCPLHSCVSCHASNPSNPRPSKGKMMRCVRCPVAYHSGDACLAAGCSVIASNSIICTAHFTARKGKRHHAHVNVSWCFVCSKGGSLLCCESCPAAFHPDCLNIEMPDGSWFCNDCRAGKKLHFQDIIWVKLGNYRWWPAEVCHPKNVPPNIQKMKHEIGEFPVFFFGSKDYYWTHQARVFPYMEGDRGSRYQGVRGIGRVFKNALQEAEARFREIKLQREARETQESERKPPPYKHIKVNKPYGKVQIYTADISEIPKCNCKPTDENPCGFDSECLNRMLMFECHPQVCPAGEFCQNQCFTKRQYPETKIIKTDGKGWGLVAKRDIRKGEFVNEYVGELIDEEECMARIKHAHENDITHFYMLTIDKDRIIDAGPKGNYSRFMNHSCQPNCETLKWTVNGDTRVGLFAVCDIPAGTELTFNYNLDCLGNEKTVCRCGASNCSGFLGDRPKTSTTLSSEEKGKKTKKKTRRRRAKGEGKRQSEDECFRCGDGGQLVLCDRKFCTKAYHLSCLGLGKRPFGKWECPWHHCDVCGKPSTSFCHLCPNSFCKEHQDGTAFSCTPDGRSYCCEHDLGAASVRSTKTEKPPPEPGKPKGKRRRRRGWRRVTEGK

ORF 73 = ORF 73 (Human herpesvirus 8, UniProt O40947); test: KSHV LANA DNA-binding disruption – biochemical, fluorescence polarization, cherry-picked samples, dose response (AID 504725); design: species or system Human gammaherpesvirus 8;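 also: fluorescence polarization of a labeled DNA duplex reporting LANA DNA binding; potency is for inhibitors that block LANA binding to the DNA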
[12] = target: Beta-2 adrenergic receptor (Homo sapiens, UniProt P07550); test: ADRB2 activation measured by internalization – cell-based, FAP fluorogen, flow cytometry, cherry pick 1, dose response (AID 588763); assay type: functional
[13] = target: T7, Ubiquitin-conjugating enzyme E2 N (Homo sapiens, UniProt P61088); assay type: functional
T7 sequence (P61088 whole entry): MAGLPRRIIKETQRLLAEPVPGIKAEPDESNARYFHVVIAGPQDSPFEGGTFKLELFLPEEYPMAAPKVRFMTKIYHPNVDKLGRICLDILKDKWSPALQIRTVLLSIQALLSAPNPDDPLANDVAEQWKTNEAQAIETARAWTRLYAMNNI

Bcl-2-related protein A1 = target: T8, Bcl-2-related protein A1 (Mus musculus, UniProt Q07440); assay type: functional;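 also: confirmatory dose–response counterscreen on Bfl-1, used to check hits from a UBC13 polyubiquitin inhibitor campaign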
T8 sequence (Q07440 whole entry): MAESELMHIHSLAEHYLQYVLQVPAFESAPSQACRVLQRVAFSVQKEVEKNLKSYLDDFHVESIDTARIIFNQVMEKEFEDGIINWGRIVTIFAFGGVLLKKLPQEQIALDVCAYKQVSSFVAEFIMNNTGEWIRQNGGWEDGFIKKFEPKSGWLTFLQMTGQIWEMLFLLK

[14] = target: T7, Ubiquitin-conjugating enzyme E2 N; assay type: functional; remark: listed apart in the source
[15] = target: ATP-dependent molecular chaperone HSP82 (Candida albicans (strain WO-1) (Yeast), UniProt C4YTQ8); test: steroid-induced GRE reporter decrease in yeast – S. cerevisiae, luminescence, Hsp90 inhibitor project, dose response (AID 2400); assay type: functional, cell-based;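 also: beta-galactosidase luminescence from glucocorticoid response element reporter as proxy for Hsp90 function; inhibitor potency where signal loss means Hsp90 inhibition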
[16] = target: Serine/threonine-protein phosphatase (Candida dubliniensis (strain CD36 / CBS 7987 / NCPF 3949 / NRRLY-17841) (Yeast), UniProt B9W6M3); test: blockers of CaCl2-induced CDRE-lacZ signaling – S. cerevisiae, luminescence, secondary, dose response (AID 2388); assay type: functional, cell-based;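 also: yeast reporter cells carrying a calcineurin-responsive lacZ construct stimulated with calcium chloride; luminescent beta-galactosidase reporter signal in whole cells rather than isolated phosphatase activity; potency for inhibition where a drop in reporter signal means calcineurin blockade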

T3 sequence (P0DMV8 whole entry): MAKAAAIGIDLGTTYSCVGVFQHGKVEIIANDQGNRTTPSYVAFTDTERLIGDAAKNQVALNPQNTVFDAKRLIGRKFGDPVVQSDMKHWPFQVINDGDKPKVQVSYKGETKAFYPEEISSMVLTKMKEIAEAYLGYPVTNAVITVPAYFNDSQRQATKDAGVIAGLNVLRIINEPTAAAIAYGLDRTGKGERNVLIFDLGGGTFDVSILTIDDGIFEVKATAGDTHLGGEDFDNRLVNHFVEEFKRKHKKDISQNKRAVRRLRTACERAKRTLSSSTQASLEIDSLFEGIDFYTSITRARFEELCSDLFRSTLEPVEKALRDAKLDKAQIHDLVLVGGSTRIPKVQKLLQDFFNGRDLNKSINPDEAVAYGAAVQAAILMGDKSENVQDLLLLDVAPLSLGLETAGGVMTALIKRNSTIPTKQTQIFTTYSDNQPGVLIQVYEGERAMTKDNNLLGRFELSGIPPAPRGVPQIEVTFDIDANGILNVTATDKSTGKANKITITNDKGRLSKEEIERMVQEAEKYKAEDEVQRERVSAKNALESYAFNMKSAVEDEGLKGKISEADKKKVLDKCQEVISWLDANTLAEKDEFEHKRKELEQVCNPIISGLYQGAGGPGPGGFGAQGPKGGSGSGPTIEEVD
ORF 73, sequence (O40947 whole entry): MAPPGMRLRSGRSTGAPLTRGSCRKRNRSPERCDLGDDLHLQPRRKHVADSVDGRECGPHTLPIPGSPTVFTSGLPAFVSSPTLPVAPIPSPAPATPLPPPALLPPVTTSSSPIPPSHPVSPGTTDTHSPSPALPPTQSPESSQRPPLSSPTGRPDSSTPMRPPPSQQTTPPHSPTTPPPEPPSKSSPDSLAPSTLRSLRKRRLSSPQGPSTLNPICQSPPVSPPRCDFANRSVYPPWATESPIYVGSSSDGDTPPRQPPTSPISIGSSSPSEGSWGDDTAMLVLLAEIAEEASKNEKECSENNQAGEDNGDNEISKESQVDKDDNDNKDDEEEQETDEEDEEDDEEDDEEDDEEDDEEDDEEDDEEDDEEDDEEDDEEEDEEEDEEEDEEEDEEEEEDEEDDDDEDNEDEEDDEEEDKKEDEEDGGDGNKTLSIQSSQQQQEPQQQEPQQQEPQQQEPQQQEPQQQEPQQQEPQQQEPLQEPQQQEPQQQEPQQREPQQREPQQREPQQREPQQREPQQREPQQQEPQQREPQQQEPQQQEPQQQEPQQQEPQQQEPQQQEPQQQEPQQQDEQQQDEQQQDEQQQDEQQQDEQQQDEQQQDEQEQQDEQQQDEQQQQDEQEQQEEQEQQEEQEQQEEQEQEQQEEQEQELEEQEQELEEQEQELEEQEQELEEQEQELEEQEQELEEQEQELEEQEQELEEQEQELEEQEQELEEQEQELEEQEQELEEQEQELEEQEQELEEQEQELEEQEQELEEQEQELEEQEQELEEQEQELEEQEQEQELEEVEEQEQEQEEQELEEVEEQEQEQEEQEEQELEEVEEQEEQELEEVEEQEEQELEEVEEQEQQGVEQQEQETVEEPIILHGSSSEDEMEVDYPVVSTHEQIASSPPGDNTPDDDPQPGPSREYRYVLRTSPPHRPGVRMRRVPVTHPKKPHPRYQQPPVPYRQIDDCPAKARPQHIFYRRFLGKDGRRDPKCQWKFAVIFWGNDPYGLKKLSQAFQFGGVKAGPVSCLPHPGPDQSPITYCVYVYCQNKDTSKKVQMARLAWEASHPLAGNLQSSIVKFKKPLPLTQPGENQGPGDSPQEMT
Hexokinase-1, sequence (P19367 whole entry, the tested form may be a part): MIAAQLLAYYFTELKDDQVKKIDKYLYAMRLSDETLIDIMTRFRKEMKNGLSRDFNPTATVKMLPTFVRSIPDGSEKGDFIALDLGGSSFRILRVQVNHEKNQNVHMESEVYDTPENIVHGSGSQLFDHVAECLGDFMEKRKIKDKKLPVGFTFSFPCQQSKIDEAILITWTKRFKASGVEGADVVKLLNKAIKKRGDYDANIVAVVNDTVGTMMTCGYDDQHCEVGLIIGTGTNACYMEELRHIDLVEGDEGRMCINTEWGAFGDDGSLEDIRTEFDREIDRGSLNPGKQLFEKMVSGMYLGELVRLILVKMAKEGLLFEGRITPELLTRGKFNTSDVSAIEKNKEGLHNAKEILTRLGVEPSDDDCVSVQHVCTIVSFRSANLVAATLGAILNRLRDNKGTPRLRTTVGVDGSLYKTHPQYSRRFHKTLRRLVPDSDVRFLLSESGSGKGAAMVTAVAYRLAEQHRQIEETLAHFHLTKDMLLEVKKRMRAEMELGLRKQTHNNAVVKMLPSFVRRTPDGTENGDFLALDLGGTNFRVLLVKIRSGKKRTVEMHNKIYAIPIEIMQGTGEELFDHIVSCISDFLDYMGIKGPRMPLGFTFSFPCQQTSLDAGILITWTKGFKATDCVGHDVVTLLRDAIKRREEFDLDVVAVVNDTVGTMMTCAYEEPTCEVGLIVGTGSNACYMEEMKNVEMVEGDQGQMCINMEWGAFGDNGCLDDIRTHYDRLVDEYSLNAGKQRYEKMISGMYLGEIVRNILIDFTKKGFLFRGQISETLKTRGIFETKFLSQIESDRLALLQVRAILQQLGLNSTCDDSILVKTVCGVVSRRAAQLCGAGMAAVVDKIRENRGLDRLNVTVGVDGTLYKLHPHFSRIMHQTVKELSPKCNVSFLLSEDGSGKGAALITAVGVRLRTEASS
DNA (cytosine-5)-methyltransferase 1, sequence (P26358 whole entry): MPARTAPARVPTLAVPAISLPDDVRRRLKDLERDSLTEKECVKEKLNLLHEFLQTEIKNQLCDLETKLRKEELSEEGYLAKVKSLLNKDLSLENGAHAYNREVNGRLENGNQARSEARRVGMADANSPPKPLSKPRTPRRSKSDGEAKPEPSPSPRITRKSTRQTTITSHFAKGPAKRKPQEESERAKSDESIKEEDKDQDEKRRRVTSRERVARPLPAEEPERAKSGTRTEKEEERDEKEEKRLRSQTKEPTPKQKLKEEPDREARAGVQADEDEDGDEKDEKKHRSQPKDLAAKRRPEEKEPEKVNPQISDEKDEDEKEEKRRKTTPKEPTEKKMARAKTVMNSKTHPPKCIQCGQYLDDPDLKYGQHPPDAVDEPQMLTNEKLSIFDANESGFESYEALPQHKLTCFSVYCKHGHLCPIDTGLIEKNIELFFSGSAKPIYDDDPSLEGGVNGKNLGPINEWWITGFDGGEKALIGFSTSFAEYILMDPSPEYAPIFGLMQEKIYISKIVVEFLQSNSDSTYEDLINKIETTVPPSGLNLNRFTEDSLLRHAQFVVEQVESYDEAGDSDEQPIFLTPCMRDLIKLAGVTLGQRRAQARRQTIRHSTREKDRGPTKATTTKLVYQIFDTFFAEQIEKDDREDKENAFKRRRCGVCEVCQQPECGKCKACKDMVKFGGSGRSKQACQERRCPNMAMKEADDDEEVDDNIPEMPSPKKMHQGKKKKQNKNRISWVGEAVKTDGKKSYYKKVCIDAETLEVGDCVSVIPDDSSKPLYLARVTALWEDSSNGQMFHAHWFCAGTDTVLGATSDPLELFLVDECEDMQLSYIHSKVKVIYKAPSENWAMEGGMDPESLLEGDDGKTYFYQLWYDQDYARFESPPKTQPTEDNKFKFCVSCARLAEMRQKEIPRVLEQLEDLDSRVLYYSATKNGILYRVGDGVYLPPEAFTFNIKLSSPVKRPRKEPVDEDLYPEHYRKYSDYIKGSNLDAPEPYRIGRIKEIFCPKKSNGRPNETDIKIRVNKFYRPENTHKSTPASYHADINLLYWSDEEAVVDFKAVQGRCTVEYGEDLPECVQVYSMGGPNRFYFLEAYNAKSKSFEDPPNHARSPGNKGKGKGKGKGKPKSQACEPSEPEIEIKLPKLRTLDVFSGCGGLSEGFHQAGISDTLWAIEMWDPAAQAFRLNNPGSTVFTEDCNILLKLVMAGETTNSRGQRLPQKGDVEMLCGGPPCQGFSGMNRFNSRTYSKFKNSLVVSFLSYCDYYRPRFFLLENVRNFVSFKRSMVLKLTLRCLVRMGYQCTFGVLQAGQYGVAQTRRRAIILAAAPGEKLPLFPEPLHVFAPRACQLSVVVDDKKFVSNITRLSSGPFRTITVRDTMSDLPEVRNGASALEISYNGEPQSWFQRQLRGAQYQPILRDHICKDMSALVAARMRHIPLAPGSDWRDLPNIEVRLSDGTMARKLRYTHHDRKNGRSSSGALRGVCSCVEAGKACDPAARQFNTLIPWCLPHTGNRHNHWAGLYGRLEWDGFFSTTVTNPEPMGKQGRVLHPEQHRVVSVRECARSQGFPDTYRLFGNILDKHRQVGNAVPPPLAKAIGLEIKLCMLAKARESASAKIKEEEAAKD
Large T antigen, sequence (P03070 whole entry): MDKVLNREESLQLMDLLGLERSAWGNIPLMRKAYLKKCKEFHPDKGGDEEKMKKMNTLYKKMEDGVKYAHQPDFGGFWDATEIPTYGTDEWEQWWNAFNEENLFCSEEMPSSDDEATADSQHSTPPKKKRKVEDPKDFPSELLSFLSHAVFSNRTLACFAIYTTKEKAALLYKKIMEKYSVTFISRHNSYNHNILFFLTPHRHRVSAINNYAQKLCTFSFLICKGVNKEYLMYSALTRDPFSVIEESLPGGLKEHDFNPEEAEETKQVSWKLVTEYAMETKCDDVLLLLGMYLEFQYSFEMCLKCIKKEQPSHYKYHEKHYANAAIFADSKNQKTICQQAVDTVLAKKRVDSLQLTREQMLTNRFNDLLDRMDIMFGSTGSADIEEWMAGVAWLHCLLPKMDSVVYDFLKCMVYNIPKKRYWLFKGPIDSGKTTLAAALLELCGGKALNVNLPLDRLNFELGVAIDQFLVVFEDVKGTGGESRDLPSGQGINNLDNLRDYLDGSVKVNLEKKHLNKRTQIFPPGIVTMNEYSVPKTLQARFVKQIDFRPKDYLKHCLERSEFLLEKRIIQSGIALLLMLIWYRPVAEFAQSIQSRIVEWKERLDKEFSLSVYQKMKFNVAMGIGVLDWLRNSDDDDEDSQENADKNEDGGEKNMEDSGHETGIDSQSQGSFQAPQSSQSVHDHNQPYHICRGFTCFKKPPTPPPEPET

SMILES: O=c1c2ccccc2nc(/C=C/c2cccnc2)n1-c1ccccc1
IC50 (Hexokinase-1): > 80 µM (inactive)
IC50 (Hexokinase HKDC1): > 80 µM (inactive)

SMILES: Cc1cc(NC(=O)c2cc3cccc([N+](=O)[O-])c3[nH]2)ccc1F
IC50 [1]: > 67.5 µM (inactive)
IC50 (HEK293): > 67.5 µM (inactive)

SMILES: CC1=NN(c2cccc(C(=O)O)c2)C(=O)/C1=C\C=C\c1ccco1
IC50 (Large T antigen): 27.6 µM (active)
IC50 [2]: 66.7 µM (active)
IC50 [3]: 4.73 µM (active)
EC50 [4]: 14.8 µM (inactive)
IC50 [5]: 17.4 µM (active)
CC50 [6]: > 40 µM (active)
EC50 [7]: 19.9 µM (active)
IC50 [8]: 1.18 µM (active)
IC50 [9]: 21.7 µM (active)
IC50 (Troponin, cardiac muscle): 15 µM (inactive)
EC50 [10]: 23.7 µM (inconclusive)
AC50 [11]: 2.19 µM (active)
AC50 (ORF 73): 18 µM (active)

Further lines, results first:

EC50 [12]: 1.04 µM (active)
SMILES: CCOC(=O)N1CCN(c2nnc(-c3ccc(C)cc3)c3ccccc23)CC1

IC50 [13]: > 20 µM (inactive)
IC50 (Bcl-2-related protein A1): > 20 µM (inactive)
IC50 [14]: 9.98 µM (active)
EC50 [15]: 19.2 µM (active)
EC50 [16]: > 180 µM (inactive)
SMILES: Fc1cccc(-n2cc(-c3ccccc3)c3c(=S)[nH]cnc32)c1
